Data published in patent EP0221032A2, “Sodium salt of etodolic acid and process for its preparation” (priority 1985, dated 1987).
Where a name gives a salt, the structure may show the parent alone. Read-outs that look alike come from different tables or passages of the source.

How the values were obtained:
[1] = background statement on the free acid; cited from earlier work
[2] = Water solubility of etodolic acid and its salts; format: physicochemical; settings: for solubility: water
Description: Etodolic acid was taken into consideration as a typical representative, particularly appreciated from the pharmacological point of view, of said derivatives and some typical salts thereof were prepared.
(§1) In order to avail oneself of a derivative usable in therapy, it is necessary, in fact, to obtain a highly soluble substance, also considering the doses of etodolic acid which have to be administered for getting an efficient therapeutic action (at least 200 mg twice a day in the adult).

[3] = Colour and stability of aqueous solutions of the salts (quickened ageing tests); format: physicochemical; settings: for colour of the solutions: aqueous solutions
Description: as §1

[4] = pH of aqueous solutions of the sodium salt; format: physicochemical
Description: The 20% solution has a pH of 8.7, while a 7.3% solution has a pH of 7.8.

[5] = Stability in a 10% aqueous solution at various temperatures; format: physicochemical; settings: for remaining at 720 h / remaining at 1440 h / remaining at 2160 h: water, read-out: Titre % (HPLC)
Description: (§2) The following tables No.1, 2 and 3 respectively show the stability data of sodium etodolate in aqueous solutions at 10% and 20% at various temperatures and again at 10% after sterilization in autoclave in a closed container.

[6] = Stability in a 20% aqueous solution at various temperatures; format: physicochemical; settings: for remaining at 720 h / remaining at 1440 h / remaining at 2160 h: water, read-out: Titre % (HPLC)
Description: as §2

[7] = Stability after sterilization at 120°C in autoclave for 20 min; format: physicochemical; settings: 10% aqueous solution
Description: as §2

[8] = after sterilization at 120°C in autoclave for 20 min, closed container

CCc1cccc2c3c([nH]c12)C(CC)(CC(=O)O)OCC3 (centres unmarked) [etodolic acid, 1,8-diethyl-1,3,4,9-tetrahydropyran-[3,4-b] indol-1-acetic acid]
water-insoluble: water solubility (in words) [1]

CCc1cccc2c3c([nH]c12)C(CC)(CC(=O)O)OCC3 (centres unmarked) [potassium salt, reference compound]
deeply coloured: colour of the solutions [3]
not much stable: stability of the solutions ([3]; quickened ageing tests)
2%: solubility [2]

CCc1cccc2c3c([nH]c12)C(CC)(CC(=O)O)OCC3 (centres unmarked) [sodium salt of etodolic acid, Sodium salt of etodolic acid]
pale yellow: Colour ([5]; at starting point) | Colour ([6]; at starting point) | Colour of the solution [7, 8] | Colour of the solution ([7]; at starting-point)
unchanged: Colour ([5]; 5°C, 1 month) | Colour ([5]; 5°C, 2 month) | Colour ([5]; 5°C, 3 month) | Colour ([5]; 25°C, 1 month) | Colour ([5]; 25°C, 2 month) | Colour ([5]; 25°C, 3 month) | Colour ([5]; 45°C, 1 month) | Colour ([5]; 45°C, 2 month) | Colour ([5]; 45°C, 3 month) | Colour ([6]; 5°C, 1 month) | Colour ([6]; 5°C, 2 month) | Colour ([6]; 5°C, 3 month) | Colour ([6]; 25°C, 1 month) | Colour ([6]; 25°C, 2 month) | Colour ([6]; 25°C, 3 month) | Colour ([6]; 45°C, 1 month)
only fleebly yellow-coloured: colour of the solutions [3]
100%: Titre % (HPLC) ([5]; at starting point) | remaining at 1440 h ([5]; 5°C, 2 month) | remaining at 2160 h ([5]; 5°C, 3 month) | remaining at 720 h ([5]; 25°C, 1 month) | remaining at 1440 h ([5]; 25°C, 2 month) | remaining at 720 h ([5]; 45°C, 1 month) | remaining at 2160 h ([5]; 45°C, 3 month) | Titre % (HPLC) ([6]; at starting point) | remaining at 1440 h ([6]; 5°C, 2 month) | remaining at 720 h ([6]; 25°C, 1 month) | remaining at 2160 h ([6]; 25°C, 3 month) | Titre % (HPLC) ([7]; at starting-point) | remaining at 20 min ([7]; water, after sterilization at 120°C in autoclave for 20 min, closed container, read-out: Titre (%) (HPLC))
7.85: pH ([5]; 25°C, 2 month)
7.75: pH ([5]; 5°C, 3 month)
easily soluble in water: water solubility (in words) [2]
limpid: Appearance of the solution [7, 8] | Appearance of the solution ([7]; at starting-point)
7.8: pH ([4]; 7.3% solution) | pH ([5]; 5°C, 1 month) | pH ([5]; 5°C, 2 month) | pH ([5]; 25°C, 1 month) | pH ([5]; 25°C, 3 month) | pH ([5]; 45°C, 1 month) | pH ([5]; 45°C, 2 month) | pH ([5]; at starting point) | pH [7, 8] | pH ([7]; at starting-point)
98%: remaining at 1440 h ([6]; 45°C, 2 month) | remaining at 2160 h ([6]; 45°C, 3 month)
deep yellow: Colour ([6]; 45°C, 2 month) | Colour ([6]; 45°C, 3 month)
97%: remaining at 2160 h ([6]; 5°C, 3 month)
very stable during time: stability of the solutions ([3]; during time)
8.6: pH ([6]; 5°C, 3 month) | pH ([6]; 25°C, 2 month) | pH ([6]; 45°C, 1 month)
99%: remaining at 720 h ([5]; 5°C, 1 month) | remaining at 2160 h ([5]; 25°C, 3 month) | remaining at 1440 h ([5]; 45°C, 2 month) | remaining at 720 h ([6]; 5°C, 1 month) | remaining at 1440 h ([6]; 25°C, 2 month) | remaining at 720 h ([6]; 45°C, 1 month)
> 200 mg/mL: solubility ([2]; water-soluble)
quite stable: stability ([3]; most different storage and treatment conditions (summary of Tables 1-3))
7.7: pH ([5]; 45°C, 3 month)
exceed 20 % by weight: solubility [2]
8.7: pH ([4]; 20% solution) | pH ([6]; 5°C, 1 month) | pH ([6]; 5°C, 2 month) | pH ([6]; 25°C, 1 month) | pH ([6]; 25°C, 3 month) | pH ([6]; 45°C, 2 month) | pH ([6]; 45°C, 3 month) | pH ([6]; at starting point)
